Measurements: patent US10544103B2, “5-HT2 antagonists” (ANAMAR AB, priority 2015, dated 2020)

Target: T1, 5-HT2B receptor (Homo sapiens, UniProt P41595)
T1 construct: host or cells: CHO-K1
Test: 5-HT2B receptor binding, 3H-LSD ligand displacement assay
Settings: for inhibition at 0.001 µM: 0.001 uM compound; for inhibition at 0.01 µM: 0.01 uM compound; for inhibition at 0.1 µM: 0.1 uM compound; for inhibition at 1 µM: 1 uM compound
Procedure: 5-HT2B receptor binding (performed at Eurofins Panlabs Taiwan, Ltd.) to human receptor protein expressed in CHO-K1 cells was determined in a ligand displacement assay using ^3H-lysergic acid diethylamide (LSD) as radioligand and ketanserine as a standard reference compound. Data is presented as % displacement of radioligand at indicated compound concentrations, see Table 1 and Table 2.

T1 sequence (P41595 whole entry): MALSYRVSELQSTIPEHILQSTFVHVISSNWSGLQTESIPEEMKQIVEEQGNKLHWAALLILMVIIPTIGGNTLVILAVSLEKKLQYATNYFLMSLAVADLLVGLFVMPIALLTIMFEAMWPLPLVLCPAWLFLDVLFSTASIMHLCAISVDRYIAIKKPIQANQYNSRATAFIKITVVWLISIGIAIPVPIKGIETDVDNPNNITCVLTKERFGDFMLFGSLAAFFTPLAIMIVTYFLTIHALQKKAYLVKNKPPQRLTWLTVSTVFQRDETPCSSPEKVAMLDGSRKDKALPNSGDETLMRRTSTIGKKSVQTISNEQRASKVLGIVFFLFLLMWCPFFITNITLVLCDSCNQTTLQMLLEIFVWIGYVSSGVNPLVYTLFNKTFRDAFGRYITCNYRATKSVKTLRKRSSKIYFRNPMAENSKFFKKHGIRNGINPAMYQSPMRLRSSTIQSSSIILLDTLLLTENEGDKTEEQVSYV

SMILES	inhibition at 0.001 µM [%]	inhibition at 0.01 µM [%]	inhibition at 0.1 µM [%]	inhibition at 1 µM [%]	inhibition at 10 µM (10 uM compound) [%]
CC1CN(C(=N)Nc2ccccc2)N=C1c1cccc(Cl)c1O (stereo not shown) [Example 89, 3-(3-Chloro-2-hydroxyphenyl)-4-methyl-N-phenyl-4,5-dihydro-1H-pyrazole-1-carboximidamide]	88	100	97	–	–
CC1CN(C(=N)N)N=C1c1cccc(Cl)c1O (stereo not shown) [Example 54, 3-(3-Chloro-2-hydroxyphenyl)-4-methyl-4,5-dihydro-1H-pyrazole-1-carboximidamide]	–	81	95	101	–
CC1CN(C(=N)N)N=C1c1ccc(O)cc1O (stereo not shown) [Example 67, 3-(2,4-Dihydroxyphenyl)-4-methyl-4,5-dihydro-1H-pyrazole-1-carboximidamide]	–	9	31	72	–
COc1ccccc1C1=NN(C(=N)Nc2ccc(C(F)(F)F)cc2)CC1C (stereo not shown) [Example 98, 3-(2-Methoxyphenyl)-4-methyl-N-(4-(trifluoromethyl)phenyl)-4,5-dihydro-1H-pyrazole-1-carboximidamide]	5	41	86	–	–
N=C(N)N1CCC(c2c(O)cccc2Cl)=N1 [Example 34, 3-(2-Chloro-6-hydroxyphenyl)-4,5-dihydro-1H-pyrazole-1-carboximidamide]	–	–	23	52	–
N=C(N)N1CCC(c2ccc3ccccc3c2)=N1 [Example 12, 3-(Naphthalen-2-yl)-4,5-dihydro-1H-pyrazole-1-carboximidamide, reference compound]	–	–	18	76	–
CC1CN(C(=N)N)N=C1c1ccc(C(F)(F)F)cc1O (stereo not shown) [Example 69, 3-(2-Hydroxy-4-(trifluoromethyl)phenyl)-4-methyl-4,5-dihydro-1H-pyrazole-1-carboximidamide]	–	–	70	97	–
CC1CN(C(=N)NC2CCCCC2)N=C1c1cccc(Cl)c1O (stereo not shown) [Example 85, 3-(3-Chloro-2-hydroxyphenyl)-N-cyclohexyl-4-methyl-4,5-dihydro-1H-pyrazole-1-carboximidamide]	47	93	101	–	–
N=C(N)N1CCC(c2ccccc2C(F)(F)F)=N1 [Example 13, 3-(2-(Trifluoromethyl)phenyl)-4,5-dihydro-1H-pyrazole-1-carboximidamide]	–	–	34	82	–
COc1ccccc1C1=NN(C(=N)NCC(F)(F)C(F)(F)C(F)(F)F)CC1C (stereo not shown) [Example 92, N-(2,2,3,3,4,4,4-Heptafluorobutyl)-3-(2-methoxyphenyl)-4-methyl-4,5-dihydro-1H-pyrazole-1-carboximidamide]	-3	22	78	–	–
COc1c(F)cccc1C1=NN(C(=N)N)CC1C (stereo not shown) [Example 47, 3-(3-Fluoro-2-methoxyphenyl)-4-methyl-4,5-dihydro-1H-pyrazole-1-carboximidamide]	–	15	68	92	–
CCCCCCCCCCCCNC(=N)N1CC(C)C(c2cccc(Cl)c2O)=N1 (stereo not shown) [Example 83, 3-(3-Chloro-2-hydroxyphenyl)-N-dodecyl-4-methyl-4,5-dihydro-1H-pyrazole-1-carboximidamide]	3	23	82	–	–
CC1CN(C(=N)N)N=C1c1cc(F)ccc1O (stereo not shown) [Example 46, 3-(5-Fluoro-2-hydroxyphenyl)-4-methyl-4,5-dihydro-1H-pyrazole-1-carboximidamide]	–	22	54	89	–
CC1CN(C(=N)Nc2ccccc2)N=C1c1ccccc1O (stereo not shown) [Example 97, 3-(2-Hydroxyphenyl)-4-methyl-N-phenyl-4,5-dihydro-1H-pyrazole-1-carboximidamide]	62	99	105	–	–
CC1CN(C(=N)NCc2ccc(Cl)cc2Cl)N=C1c1ccccc1O (stereo not shown) [Example 57, N-(2,4-Dichlorobenzyl)-3-(2-hydroxyphenyl)-4-methyl-4,5-dihydro-1H-pyrazole-1-carboximidamide]	21	78	–	–	–
CC1CN(C(=N)Nc2ccc(F)cc2)N=C1c1ccccc1O (stereo not shown) [Example 101, N-(4-Fluorophenyl)-3-(2-hydroxyphenyl)-4-methyl-4,5-dihydro-1H-pyrazole-1-carboximidamide]	55	91	102	–	–
CC1CN(C(=N)NCC(F)(F)C(F)(F)C(F)(F)F)N=C1c1cccc(Cl)c1O (stereo not shown) [Example 107, 3-(3-Chloro-2-hydroxyphenyl)-N-(2,2,3,3,4,4,4-heptafluorobutyl)-4-methyl-4,5-dihydro-1H-pyrazole-1-carboximidamide]	51	91	100	–	–

SMILES	inhibition at 0.001 µM [%]	inhibition at 0.01 µM [%]	inhibition at 0.1 µM [%]	inhibition at 1 µM [%]	inhibition at 10 µM (10 uM compound) [%]
CCC1CC(c2ccccc2Cl)=NN1C(=N)N (stereo not shown) [Example 27, 3-(2-Chlorophenyl)-5-ethyl-4,5-dihydro-1H-pyrazole-1-carboximidamide]	–	–	25	76	–
CC1CN(C(=N)Nc2ccc(Cl)cc2)N=C1c1ccccc1O (stereo not shown) [Example 103, N-(4-Chlorophenyl)-3-(2-hydroxyphenyl)-4-methyl-4,5-dihydro-1H-pyrazole-1-carboximidamide]	42	90	99	–	–
CC1CN(C(=N)Nc2ccc(C(F)(F)F)cc2)N=C1c1ccccc1O (stereo not shown) [Example 99, 3-(2-Hydroxyphenyl)-4-methyl-N-(4-(trifluoromethyl)phenyl)-4,5-dihydro-1H-pyrazole-1-carboximidamide]	48	89	103	–	–
C[C@H]1CN(C(=N)NCc2ccccc2)N=C1c1cccc(Cl)c1O (single isomer, unassigned) [Example 77, (S)*—N-Benzyl-3-(3-chloro-2-hydroxyphenyl)-4-methyl-4,5-dihydro-1H-pyrazole-1-carboximidamide]	2	28	88	–	–
COc1ccc(C2=NN(C(=N)N)CC2)cc1OC [Example 16, 3-(3,4-Dimethoxyphenyl)-4,5-dihydro-1H-pyrazole-1-carboximidamide, reference compound]	–	–	–	6	42
CC1CN(C(=N)NCc2ccccc2)N=C1c1ccccc1O (stereo not shown) [Example 42, N-Benzyl-3-(2-hydroxyphenyl)-4-methyl-4,5-dihydro-1H-pyrazole-1-carboximidamide]	49	97	98	99	–
N=C(N)N1N=C(c2ccccc2Cl)C2CCCC21 (stereo not shown) [Example 30, 3-(2-Chlorophenyl)-4,5,6,6a-tetrahydrocyclopenta[c]pyrazole-1(3aH)-carboximidamide]	–	–	44	88	–
COc1c(Cl)cccc1C1=NN(C(=N)Nc2ccc(C(F)(F)F)cc2)CC1C (stereo not shown) [Example 112, 3-(3-Chloro-2-methoxyphenyl)-4-methyl-N-(4-(trifluoromethyl)phenyl)-4,5-dihydro-1H-pyrazole-1-carboximidamide]	1	77	97	–	–
CC1(C)CN(C(=N)N)N=C1c1ccccc1O [Example 32, 3-(2-Hydroxyphenyl)-4,4-dimethyl-4,5-dihydro-1H-pyrazole-1-carboximidamide]	–	–	28	79	–
CC1CN(C(=N)N)N=C1c1ccc(F)cc1O (stereo not shown) [Example 50, 3-(4-Fluoro-2-hydroxyphenyl)-4-methyl-4,5-dihydro-1H-pyrazole-1-carboximidamide]	–	42	87	96	–
COc1ccc(CNC(=N)N2CC(C)C(c3ccccc3O)=N2)cc1OC (stereo not shown) [Example 60, N-(3,4-Dimethoxybenzyl)-3-(2-hydroxyphenyl)-4-methyl-4,5-dihydro-1H-pyrazole-1-carboximidamide]	6	28	–	–	–
CCOC(=O)NC(=N)N1CC(C)C(c2cccc(Cl)c2OC(=O)OCC)=N1 (stereo not shown) [Example 118, Ethyl ((3-(3-chloro-2-((ethoxycarbonyl)oxy)phenyl)-4-methyl-4,5-dihydro-1H-pyrazol-1-yl)(imino)methyl)carbamate]	–	0	54	91	–
CCCCCCNC(=N)N1CC(C)C(c2cccc(Cl)c2OC)=N1 (stereo not shown) [Example 80, 3-(3-Chloro-2-methoxyphenyl)-N-hexyl-4-methyl-4,5-dihydro-1H-pyrazole-1-carboximidamide]	13	68	97	–	–
Cc1c(C2=NN(C(=N)N)C(C)C2)sc2ccccc12 (stereo not shown) [Example 29, 5-Methyl-3-(3-methylbenzo[b]thiophen-2-yl)-4,5-dihydro-1H-pyrazole-1-carboximidamide]	–	–	69	97	–
COc1c(Cl)cccc1C1=NN(C(=N)Nc2ccc(Cl)cc2)CC1C (stereo not shown) [Example 110, 3-(3-Chloro-2-methoxyphenyl)-N-(4-chlorophenyl)-4-methyl-4,5-dihydro-1H-pyrazole-1-carboximidamide]	41	83	97	–	–
CC1CN(C(=N)NCc2ccc(Cl)cc2)N=C1c1ccccc1O (stereo not shown) [Example 55, N-(4-Chlorobenzyl)-3-(2-hydroxyphenyl)-4-methyl-4,5-dihydro-1H-pyrazole-1-carboximidamide]	16	67	–	–	–
